Results taken from US8058475B2, “Substituted cyclohexylmethyl compounds” (Gruenenthal GmbH, priority 2005, dated 2011).
Where a name gives a salt, the structure may show the parent alone. Read-outs that look alike come from different tables or passages of the source.

Experiments:
human μ-opiate receptor = human μ-opiate receptor (Homo sapiens, UniProt P35372); assay: Affinity for the human μ-opiate receptor ([3H]-naloxone displacement, SPA, CHO-K1 membrane preparation); format: binding; settings: for inhibition at 1 µM: read-out: μ-Opioid receptor, % inhibition [1 μM]; for Ki: read-out: μ-Opioid receptor, Ki
human μ-opiate receptor, sequence (P35372 whole entry): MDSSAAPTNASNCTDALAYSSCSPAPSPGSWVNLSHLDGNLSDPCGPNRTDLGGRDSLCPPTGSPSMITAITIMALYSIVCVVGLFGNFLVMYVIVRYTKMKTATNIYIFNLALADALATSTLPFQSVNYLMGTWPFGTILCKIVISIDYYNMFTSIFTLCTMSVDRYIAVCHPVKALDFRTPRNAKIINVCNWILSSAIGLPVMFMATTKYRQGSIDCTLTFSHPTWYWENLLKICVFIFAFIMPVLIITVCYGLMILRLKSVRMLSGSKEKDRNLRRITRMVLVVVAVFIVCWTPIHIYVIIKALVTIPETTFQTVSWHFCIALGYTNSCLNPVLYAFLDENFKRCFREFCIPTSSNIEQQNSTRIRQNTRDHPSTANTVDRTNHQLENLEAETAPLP

[1] = molecular target: T1, Noradrenaline (NA) reuptake (Rattus norvegicus, UniProt Q63380); assay: Noradrenaline (NA) reuptake inhibition in rat brain synaptosomes (hypothalamus, P2 fraction); format: biochemical
T1 construct: synaptosomes are freshly isolated from areas of rat brain; from tissue; host or cells: rat hypothalamus synaptosomes (P2 fraction)
T1 sequence (Q63380 1-617): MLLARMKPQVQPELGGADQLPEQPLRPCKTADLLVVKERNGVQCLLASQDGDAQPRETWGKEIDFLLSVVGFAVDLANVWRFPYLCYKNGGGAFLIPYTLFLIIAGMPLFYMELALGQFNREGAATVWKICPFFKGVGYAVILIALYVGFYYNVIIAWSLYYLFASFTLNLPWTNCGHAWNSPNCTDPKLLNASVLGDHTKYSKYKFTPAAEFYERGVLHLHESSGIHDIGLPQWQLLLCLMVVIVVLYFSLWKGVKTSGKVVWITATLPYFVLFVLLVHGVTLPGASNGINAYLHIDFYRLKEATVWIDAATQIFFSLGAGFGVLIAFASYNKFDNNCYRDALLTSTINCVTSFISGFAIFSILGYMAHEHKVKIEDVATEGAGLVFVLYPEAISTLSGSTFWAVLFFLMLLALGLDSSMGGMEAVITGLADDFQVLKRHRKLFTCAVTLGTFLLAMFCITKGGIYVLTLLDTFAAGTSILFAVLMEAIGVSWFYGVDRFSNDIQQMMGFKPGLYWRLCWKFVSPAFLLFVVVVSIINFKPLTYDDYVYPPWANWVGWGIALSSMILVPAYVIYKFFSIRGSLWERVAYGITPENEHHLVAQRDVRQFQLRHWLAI
Excerpt: (§1) Noradrenaline (NA) and Serotonin (5HT) Reuptake Inhibition
(§2) In order to be able to carry out these studies in vitro, synaptosomes are freshly isolated from areas of rat brain. A so-called “P2” fraction prepared by the method of Gray and Whittaker (E. G. Gray and V. P. Whittaker (1962) J. Anat. 76, 79-88) is used in each case. For the NA uptake, these vesicular particles are isolated from the hypothalamus of male rat brains.
(§3) A detailed description of the method will be found in the literature (M. Ch. Frink, H. H. Hennies, W. Englberger, M. Haurand and B. Wilffert (1996) Arzneim.-Forsch./Drug Res. 46 (III), 11, 1029-1036).

Serotonin (5HT) reuptake = molecular target: T2, Serotonin (5HT) reuptake (Rattus norvegicus, UniProt P31652); assay: Serotonin (5HT) reuptake inhibition in rat brain synaptosomes (P2 fraction); format: biochemical; settings: for inhibition at 10 µM: read-out: Serotonin reuptake, % inhibition [10 μM]
T2 construct: synaptosomes are freshly isolated from areas of rat brain; from tissue; host or cells: rat brain synaptosomes (P2 fraction)
T2 sequence (P31652 whole entry): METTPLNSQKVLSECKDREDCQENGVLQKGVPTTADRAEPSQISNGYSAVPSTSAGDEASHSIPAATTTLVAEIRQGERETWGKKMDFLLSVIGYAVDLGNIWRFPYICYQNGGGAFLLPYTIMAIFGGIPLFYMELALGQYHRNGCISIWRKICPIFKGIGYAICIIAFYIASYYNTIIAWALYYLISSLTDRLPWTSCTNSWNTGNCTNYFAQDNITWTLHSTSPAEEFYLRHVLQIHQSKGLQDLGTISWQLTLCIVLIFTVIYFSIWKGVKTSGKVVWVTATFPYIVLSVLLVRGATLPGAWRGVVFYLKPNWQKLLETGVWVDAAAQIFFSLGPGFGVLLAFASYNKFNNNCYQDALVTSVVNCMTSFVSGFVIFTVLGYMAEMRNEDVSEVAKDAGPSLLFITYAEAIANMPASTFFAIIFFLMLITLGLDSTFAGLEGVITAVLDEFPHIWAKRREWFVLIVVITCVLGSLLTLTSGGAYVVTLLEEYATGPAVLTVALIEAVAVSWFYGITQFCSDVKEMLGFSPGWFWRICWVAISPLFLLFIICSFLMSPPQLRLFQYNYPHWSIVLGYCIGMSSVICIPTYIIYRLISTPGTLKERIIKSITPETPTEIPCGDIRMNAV
Excerpt: as §1, §2, §3

[2] = 1 μM test substance, inhibition of specific [3H]-naloxone binding
[3] = read-out: NA reuptake, % inhibition [10 μM]
[4] = read-out: Na reuptake, % inhibition [10 μM]

Compound | inhibition at 1 µM (human μ-opiate receptor; [2]) [%] | inhibition at 10 µM [1, 3] [%] | inhibition at 10 µM (Serotonin (5HT) reuptake) [%] | further results
CN(C)C(c1ccccc1)C1CCC(NCCCc2ccccc2)CC1 (centres unmarked) [compound 85, 4-((dimethylamino)(phenyl)methyl)-N-(3-phenylpropyl)cyclohexanamine dihydrochloride] | 98 | 103 | 77 | Ki (human μ-opiate receptor): 0.0028 µM
CN(C)C(c1ccc(F)cc1)C1CCC(CCCO)CC1 (centres unmarked) [compound 137, 3-{4-[dimethylamino-(4-fluorophenyl)-methyl]-cyclohexyl}-propan-1-ol] | 13 | 93 | 89 | 
CCOC(=O)C=CC1CCC(C(c2cccc(F)c2)N(C)C)CC1 (centres unmarked) [compound 138, 3-{4-[dimethylamino-(3-fluorophenyl)-methyl]-cyclohexyl}-acrylic acid ethyl ester] | 73 | 96 | 84 | Ki (human μ-opiate receptor): 0.092 µM; Ki [1]: 0.62 µM; Ki (Serotonin (5HT) reuptake): 0.31 µM
COc1ccc(N(C(C)=O)C2CCC(C(c3ccccc3)N(C)C)CC2)cc1 (centres unmarked) [compound 99, N-(4-((dimethylamino)(phenyl)methyl)cyclohexyl)-N-(4-methoxyphenyl)-acetamide hydrochloride] |  |  | 83 | inhibition at 1 µM (human μ-opiate receptor): 77%; Ki (human μ-opiate receptor): 0.47 µM; inhibition at 10 µM [1, 4]: 75%; Ki (Serotonin (5HT) reuptake): 0.54 µM
CCOC(=O)CCC1CCC(C(c2ccc(F)cc2)N(C)C)CC1 (centres unmarked) [compound 136, 3-{4-[dimethylamino-(4-fluorophenyl)-methyl]-cyclohexyl}-propionic acid ethyl ester] | 73 | 89 | 86 | Ki (human μ-opiate receptor): 0.23 µM; Ki [1]: 0.58 µM; Ki (Serotonin (5HT) reuptake): 0.083 µM
CN(C)C(c1ccccc1)C1CCC(NS(=O)(=O)c2ccccc2[N+](=O)[O-])CC1 (centres unmarked) [compound 109, N-(4-((dimethylamino)(phenyl)methyl)cyclohexyl)-2-nitrobenzene-sulfonamide hydrochloride] |  | 76 | 93 | inhibition at 1 µM (human μ-opiate receptor; 1 μM, sulfonamides (Table 17)): 92%; Ki (human μ-opiate receptor; sulfonamides (Table 17)): 0.077 µM
CN(C)C(c1cccc(F)c1)C1CCC(CCO)CC1 (centres unmarked) [compound 131, 2-{4-[dimethylamino-(3-fluorophenyl)-methyl]-cyclohexyl}-ethanol] | 68 | 89 | 91 | 
CN(C)C(c1ccc(Cl)cc1)C1CCC(N)CC1 (centres unmarked) [compound 23, 4-[(4-chlorophenyl)-dimethylamino-methyl]-cyclohexylamine] | 58 | 97 | 64 | 
Cc1ccc(C(C2CCC(=CC(=O)NCCc3ccccc3)CC2)N2CCCCC2)cc1 (centres unmarked) [compound 494, N-phenethyl-2-(4-(piperidin-1-yl(p-tolyl)methyl)cyclohexylidene)acetamide] |  | 81 | 40 | 
CCOC(=O)CC1CCC(C(c2cccc(F)c2)N(C)C)CC1 (centres unmarked) [compound 130, {4-[dimethylamino-(3-fluorophenyl)-methyl]-cyclohexyl}-acetic acid ethyl ester] | 82 | 82 | 93 | Ki (human μ-opiate receptor): 0.23 µM; Ki (Serotonin (5HT) reuptake): 0.016 µM
CN(C)C(c1ccccc1)C1CCC(N(Cc2ccccc2)C(=O)c2ccccc2)CC1 (centres unmarked) [compound 104, N-benzyl-N-(4-((dimethylamino)(phenyl)methyl)cyclohexyl)benzamide hydrochloride] |  |  | 90 | inhibition at 1 µM (human μ-opiate receptor): 92%; Ki (human μ-opiate receptor): 0.014 µM; Ki [1]: 0.32 µM; inhibition at 10 µM [1, 4]: 92%; Ki (Serotonin (5HT) reuptake): 0.44 µM
CCOC(=O)C=CC1CCC(C(c2ccc(F)cc2)N(C)C)CC1 (centres unmarked) [compound 135, 3-{4-[dimethylamino-(4-fluorophenyl)-methyl]-cyclohexyl}-acrylic acid ethyl ester] | 70 | 90 | 78 | Ki (human μ-opiate receptor): 0.38 µM; Ki [1]: 0.49 µM; Ki (Serotonin (5HT) reuptake): 0.22 µM
CCC(CC)C(=O)NC1CCC(C(c2ccccc2)N(C)C)CC1 (centres unmarked) [compound 93, N-(4-((dimethylamino)(phenyl)methyl)cyclohexyl)-2-ethylbutanamide hydrochloride] |  |  | 75 | inhibition at 1 µM (human μ-opiate receptor): 94%; Ki (human μ-opiate receptor): 0.094 µM; inhibition at 10 µM [1, 4]: 48%; Ki (Serotonin (5HT) reuptake): 0.66 µM
CN(C)C(c1ccccc1)C1CCC(CC=O)CC1 (centres unmarked) [compound 46, [4-(Dimethylamino-phenyl-methyl)-cyclohexyl]-acetaldehyde] | 75 | 95 | 92 | 
COc1cccc(NC(=O)CC2CCC(C(Cc3ccccc3)N3CCCC3)CC2)c1 (centres unmarked) [compound 492, N-(3-methoxyphenyl)-2-(4-(2-phenyl-1-(pyrrolidin-1-yl)ethyl)cyclohexyl)-acetamide] |  | 54 | 3 | 
CCOC(=O)CCC1CCC(C(c2cccc(F)c2)N(C)C)CC1 (centres unmarked) [compound 139, 3-{4-[dimethylamino-(3-fluorophenyl)-methyl]-cyclohexyl}-propionic acid ethyl ester] | 90 | 94 | 89 | Ki (human μ-opiate receptor): 0.044 µM; Ki [1]: 0.79 µM; Ki (Serotonin (5HT) reuptake): 0.058 µM

Compound | inhibition at 1 µM (human μ-opiate receptor; [2]) [%] | inhibition at 10 µM [1, 3] [%] | inhibition at 10 µM (Serotonin (5HT) reuptake) [%] | further results
CCOC(=O)C=CC1CCC(C(CCc2ccccc2)N(C)C)CC1 (centres unmarked) [compound 141, 3-[4-(1-dimethylamino-3-phenyl-propyl)-cyclohexyl]-acrylic acid ethyl ester] |  | 98 | 83 | 
CN(C)C(CCc1ccccc1)C1CCC(CCN)CC1 (centres unmarked) [compound 72, {1-[4-(2-amino-ethyl)-cyclohexyl]-3-phenyl-propyl}-dimethylamine] |  | 91 | 79 | 
CN(C)C(CCc1ccccc1)C1CCC(C=O)CC1 (centres unmarked) [compound 43, 4-(1-Dimethylamino-3-phenyl-propyl)-cyclohexane-carbaldehyde] |  | 98 | 80 | 
COc1ccc(NC(=O)C=C2CCC(C(c3ccc(C)cc3)N3CCCCC3)CC2)cc1 (centres unmarked) [compound 493, N-(4-methoxyphenyl)-2-(4-(piperidin-1-yl(p-tolyl)methyl)cyclohexylidene)-acetamide] |  | 27 | 38 | 
CN(C)C(c1ccc(F)cc1)C1CCC(CCN)CC1 (centres unmarked) [compound 51, 2-{4-[dimethylamino-(4-fluorophenyl)-methyl]-cyclohexyl}-ethylamine] |  | 98 | 97 | 
CN(C)C(c1ccc(F)cc1)C1CCC(N)CC1 (centres unmarked) [compound 19, 4-[dimethylamino-(4-fluorophenyl)-methyl]-cyclohexylamine] |  | 93 | 87 | 
CN(C)C(CCc1ccccc1)C1CCC(N)CC1 (centres unmarked) [compound 27, 4-(1-dimethylamino-3-phenyl-propyl)-cyclohexylamine] |  | 95 | 78 | 
CN(C)C(c1ccc(Cl)cc1)C1CCC(C=O)CC1 (centres unmarked) [compound 37, 4-[(4-Chloro-phenyl)-dimethylamino-methyl]-cyclohexane-carbaldehyde] |  | 97 | 75 | 
CN(C)C(c1ccc(F)cc1)C1CCC(CN)CC1 (centres unmarked) [compound 33, [(4-aminomethyl-cyclohexyl)-(4-fluorophenyl)-methyl]-dimethylamine] |  | 94 | 95 | 
CN(C)C(c1cccc(F)c1)C1CCC(CC=O)CC1 (centres unmarked) [compound 52, {4-[Dimethylamino-(3-fluorophenyl)-methyl]-cyclohexyl}-acetaldehyde] |  | 96 | 94 | 
CCOC(=O)CCC1CCC(C(CCc2ccccc2)N(C)C)CC1 (centres unmarked) [compound 142, 3-[4-(1-dimethylamino-3-phenyl-propyl)-cyclohexyl]-propionic acid ethyl ester] |  | 99 | 84 | 
CN(C)C(CCc1ccccc1)C1CCC(CN)CC1 (centres unmarked) [compound 45, [1-(4-aminomethyl-cyclohexyl)-3-phenyl-propyl]-dimethylamine] |  | 96 | 90 | 
Cc1ccc(C(C2CCC(=CC(=O)N(C)Cc3ccccc3)CC2)N2CCCCC2)cc1 (centres unmarked) [compound 496, N-benzyl-N-methyl-2-(4-(piperidin-1-yl(p-tolyl)methyl)cyclohexylidene)-acetamide] |  | 26 | 18 | 
O=C(C=C1CCC(C(Cc2ccccc2)N2CCCC2)CC1)NCc1ccccn1 (centres unmarked) [compound 495, 2-(4-(2-phenyl-1-(pyrrolidin-1-yl)ethyl)cyclohexylidene)-N-(pyridin-2-ylmethyl)acetamide] |  | 16 | 7 | 
CN(C)C(CCc1ccccc1)C1CCC(CC=O)CC1 (centres unmarked) [compound 70, [4-(1-Dimethylamino-3-phenyl-propyl)-cyclohexyl]-acetaldehyde] |  | 93 | 70 | 
CN(C)C(c1cccs1)C1CCC(C=O)CC1 (centres unmarked) [compound 40, 4-(Dimethylamino-thiophen-2-yl-methyl)-cyclohexanecarbaldehyde] |  | 77 | 78 | 
